Values quoted from earlier work in patent publication US20140088145A1 (Teva Pharmaceutical Industries, Ltd., priority 2012, published 2014).

What was measured:
[1] = in vivo
[2] = test system: Huntington's disease patients; details: 45 mg daily or 90 mg daily for 6 months
[3] = test system: Huntington's disease patients; details: twice-daily doses of 45 mg over 12 weeks

SMILES | absolute bioavailability [1] | tertiary endpoint UHDRS-TMS (changes in motor function) and individual items within the mMS (gait, dysarthria) [2] | effect on total motor function [3] | symptomatic relief incl. hand movements, gait and balance (patients with HD)
C#CCN[C@@H]1CCc2ccccc21 [rasagiline, R(+)-N-propargyl-l-aminoindan] | about 36% |  |  | 
CCCN1CCC(c2cccc(S(C)(=O)=O)c2)CC1 [pridopidine, 4-[3-(methylsulfonyl)phenyl]-1-propyl-piperidine] |  | statistically significant effect of treatment | significant effect on total motor function | significant symptomatic relief
